Values quoted from earlier work in US7968117B1, “Externally triggered microcapsules” (The United States of America as represented by the …, priority 1994, dated 2011).

Tests used:
[1] = preferred value within the printed range
[2] = dogs' brain, artificially heated region

Row | heating temperature of the brain regions showing extravasation of Eb [2] | SMILES | HLB (preferred) [1]
1 | – | CCCCCCCCCCCCCCCCCC(=O)OCC(O)CO (centres unmarked) [Glycerol Monostearate (gms), Glycerol Monostearate] | (3.8 preferred)
2 | greater than 44 °C | Cc1cc(-c2ccc(/N=N/c3ccc4c(S(=O)(=O)[O-])cc(S(=O)(=O)[O-])c(N)c4c3O)c(C)c2)ccc1/N=N/c1ccc2c(S(=O)(=O)[O-])cc(S(=O)(=O)[O-])c(N)c2c1O.[Na+].[Na+].[Na+].[Na+] [free Eb, Evans blue dye] | –
